Data as given in patent publication US10710978B2, “STK4 inhibitors for treatment of hematologic malignancies” (Dana-Farber Cancer Institute, Inc., priority 2015, dated 2020).
Read-outs that look alike come from different tables or passages of the source.

Experiments:
Assay in all cases: KiNativ assay
Format in all cases: binding
Details in all cases: H929 live cell
CaMKK2 = CaMKK2 (Homo sapiens (Human), UniProt Q96RR4)
Protocol: (§1) Biochemical IC50s of the compounds of the present disclosure against various kinases were measured in a KiNativ assay. Compounds were screened in duplicate at 10 μM in H929 live cell. IC50 was measured via Mass spectroscopy (MS).

ZAK = ZAK (Homo sapiens (Human), UniProt Q9NYL2)
Protocol: as §1

CDK5 = CDK5 (Homo sapiens (Human), UniProt Q00535)
Protocol: as §1

JAK3 domain2 = JAK3 domain2 (Homo sapiens (Human), UniProt P52333)
Protocol: as §1

BARK1 = BARK1 (Homo sapiens (Human), UniProt P25098)
Protocol: as §1

STLK5 = STLK5 (Homo sapiens (Human), UniProt Q7RTN6)
Protocol: as §1

RSK1 domain1 = RSK1 domain1 (Homo sapiens (Human), UniProt Q15418)
Protocol: as §1

MARK4 = MARK4 (Homo sapiens (Human), UniProt Q96L34)
Protocol: as §1

LATS1 = LATS1 (Homo sapiens (Human), UniProt O95835)
Protocol: as §1

CaMK2g = CaMK2g (Homo sapiens (Human), UniProt Q13555)
Protocol: as §1

PIK3CB = PIK3CB (Homo sapiens (Human), UniProt P42338)
Protocol: as §1

STLK3 = STLK3 (Homo sapiens (Human), UniProt Q9UEW8)
Protocol: as §1

IRAK1 = IRAK1 (Homo sapiens (Human), UniProt P51617)
Protocol: as §1

NEK6, NEK7 = test system: NEK6, NEK7
Protocol: as §1

PKN1 = PKN1 (Homo sapiens (Human), UniProt Q16512)
Protocol: as §1

KHS1 = KHS1 (Homo sapiens (Human), UniProt Q9Y4K4)
Protocol: as §1

SRPK2 = SRPK2 (Homo sapiens (Human), UniProt P78362)
Protocol: as §1

TAO2 = TAO2 (Homo sapiens (Human), UniProt Q9UL54)
Protocol: as §1

ACK = ACK (Homo sapiens (Human), UniProt Q07912)
Protocol: as §1

GSK3A = GSK3A (Homo sapiens (Human), UniProt P49840)
Protocol: as §1

FYN, SRC, YES = test system: FYN, SRC, YES
Protocol: as §1

NEK8 = NEK8 (Homo sapiens (Human), UniProt Q86SG6)
Protocol: as §1

PKCz = PKCz (Homo sapiens (Human), UniProt Q05513)
Protocol: as §1

PIK3CG = PIK3CG (Homo sapiens (Human), UniProt P48736)
Protocol: as §1

MST1 = MST1 (Homo sapiens (Human), UniProt Q13043)
Protocol: as §1

TLK2 = TLK2 (Homo sapiens (Human), UniProt Q86UE8)
Protocol: as §1

Wnk1, Wnk2, Wnk3 = test system: Wnk1, Wnk2, Wnk3
Protocol: as §1

CHK1 = CHK1 (Homo sapiens (Human), UniProt O14757)
Protocol: as §1

PIP4K2C = PIP4K2C (Homo sapiens (Human), UniProt Q8TBX8)
Protocol: as §1

PRPK = PRPK (Homo sapiens (Human), UniProt Q96S44)
Protocol: as §1

MAP2K5 = MAP2K5 (Homo sapiens (Human), UniProt Q13163)
Protocol: as §1

[1] = test system: CaMK2a, CaMK2b, CaMK2d, CaMK2g
Protocol: as §1

p70S6K = p70S6K (Homo sapiens (Human), UniProt P23443)
Protocol: as §1

[2] = range class, read-out: % inhibition

Sequence of STLK5 (Q7RTN6 whole entry): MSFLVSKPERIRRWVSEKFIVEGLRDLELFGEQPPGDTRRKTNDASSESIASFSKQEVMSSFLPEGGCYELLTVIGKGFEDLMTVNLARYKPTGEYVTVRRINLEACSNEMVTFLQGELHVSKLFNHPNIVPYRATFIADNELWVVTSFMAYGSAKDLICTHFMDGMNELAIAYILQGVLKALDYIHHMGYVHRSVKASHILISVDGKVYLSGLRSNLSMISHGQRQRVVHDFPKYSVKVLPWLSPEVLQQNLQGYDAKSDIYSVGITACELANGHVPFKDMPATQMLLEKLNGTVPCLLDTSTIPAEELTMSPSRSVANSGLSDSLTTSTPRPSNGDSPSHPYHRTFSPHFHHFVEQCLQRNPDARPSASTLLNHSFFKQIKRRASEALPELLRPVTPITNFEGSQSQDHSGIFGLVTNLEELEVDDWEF
Sequence of IRAK1 (P51617 whole entry): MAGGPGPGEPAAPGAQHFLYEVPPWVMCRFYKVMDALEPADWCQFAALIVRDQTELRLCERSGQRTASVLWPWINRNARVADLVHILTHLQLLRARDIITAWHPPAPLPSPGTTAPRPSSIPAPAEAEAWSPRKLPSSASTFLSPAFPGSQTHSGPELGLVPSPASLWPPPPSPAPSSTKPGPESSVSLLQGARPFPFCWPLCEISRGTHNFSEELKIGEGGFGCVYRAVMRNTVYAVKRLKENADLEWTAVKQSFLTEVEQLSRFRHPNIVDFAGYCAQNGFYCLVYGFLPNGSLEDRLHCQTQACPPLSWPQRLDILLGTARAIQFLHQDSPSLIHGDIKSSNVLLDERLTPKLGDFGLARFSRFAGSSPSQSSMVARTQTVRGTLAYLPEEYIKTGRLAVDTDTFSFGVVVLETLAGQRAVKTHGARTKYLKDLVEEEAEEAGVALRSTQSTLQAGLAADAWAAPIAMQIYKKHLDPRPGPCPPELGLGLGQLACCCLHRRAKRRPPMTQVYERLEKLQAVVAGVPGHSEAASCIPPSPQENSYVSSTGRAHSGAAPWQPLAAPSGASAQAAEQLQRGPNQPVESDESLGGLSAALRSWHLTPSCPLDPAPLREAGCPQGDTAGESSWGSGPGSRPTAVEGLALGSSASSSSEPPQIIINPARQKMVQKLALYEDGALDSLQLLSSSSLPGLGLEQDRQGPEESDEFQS
Sequence of JAK3 domain2 (P52333 whole entry, the tested form may be a part): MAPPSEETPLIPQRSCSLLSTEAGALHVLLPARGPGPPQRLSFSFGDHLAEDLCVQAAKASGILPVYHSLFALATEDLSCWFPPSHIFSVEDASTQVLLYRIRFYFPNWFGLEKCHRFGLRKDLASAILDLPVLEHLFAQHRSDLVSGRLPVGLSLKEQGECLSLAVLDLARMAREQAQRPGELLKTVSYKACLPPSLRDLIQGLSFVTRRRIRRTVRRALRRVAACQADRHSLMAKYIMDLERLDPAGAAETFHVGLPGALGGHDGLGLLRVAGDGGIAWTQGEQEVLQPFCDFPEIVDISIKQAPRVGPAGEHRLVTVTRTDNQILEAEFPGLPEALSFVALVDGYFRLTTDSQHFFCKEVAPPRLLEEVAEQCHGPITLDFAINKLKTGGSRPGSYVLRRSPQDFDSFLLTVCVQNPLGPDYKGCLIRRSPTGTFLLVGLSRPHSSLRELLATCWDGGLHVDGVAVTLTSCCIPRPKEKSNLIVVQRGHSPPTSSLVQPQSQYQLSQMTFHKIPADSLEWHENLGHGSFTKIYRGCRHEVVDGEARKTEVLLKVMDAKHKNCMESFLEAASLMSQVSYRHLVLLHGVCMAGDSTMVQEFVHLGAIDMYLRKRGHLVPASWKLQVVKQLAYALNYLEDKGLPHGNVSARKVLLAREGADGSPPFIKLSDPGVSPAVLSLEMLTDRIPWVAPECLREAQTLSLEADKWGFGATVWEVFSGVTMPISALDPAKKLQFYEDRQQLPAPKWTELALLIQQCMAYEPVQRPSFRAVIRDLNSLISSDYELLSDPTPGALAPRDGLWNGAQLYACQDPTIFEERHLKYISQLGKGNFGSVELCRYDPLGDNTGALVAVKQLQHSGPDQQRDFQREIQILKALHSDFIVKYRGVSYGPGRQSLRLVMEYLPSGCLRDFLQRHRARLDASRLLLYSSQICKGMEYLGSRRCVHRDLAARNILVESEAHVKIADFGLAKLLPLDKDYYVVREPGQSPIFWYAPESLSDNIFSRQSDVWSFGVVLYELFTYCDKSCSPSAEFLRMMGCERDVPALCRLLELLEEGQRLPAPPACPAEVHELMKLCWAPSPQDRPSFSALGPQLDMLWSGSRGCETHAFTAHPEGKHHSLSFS
Sequence of TLK2 (Q86UE8 whole entry): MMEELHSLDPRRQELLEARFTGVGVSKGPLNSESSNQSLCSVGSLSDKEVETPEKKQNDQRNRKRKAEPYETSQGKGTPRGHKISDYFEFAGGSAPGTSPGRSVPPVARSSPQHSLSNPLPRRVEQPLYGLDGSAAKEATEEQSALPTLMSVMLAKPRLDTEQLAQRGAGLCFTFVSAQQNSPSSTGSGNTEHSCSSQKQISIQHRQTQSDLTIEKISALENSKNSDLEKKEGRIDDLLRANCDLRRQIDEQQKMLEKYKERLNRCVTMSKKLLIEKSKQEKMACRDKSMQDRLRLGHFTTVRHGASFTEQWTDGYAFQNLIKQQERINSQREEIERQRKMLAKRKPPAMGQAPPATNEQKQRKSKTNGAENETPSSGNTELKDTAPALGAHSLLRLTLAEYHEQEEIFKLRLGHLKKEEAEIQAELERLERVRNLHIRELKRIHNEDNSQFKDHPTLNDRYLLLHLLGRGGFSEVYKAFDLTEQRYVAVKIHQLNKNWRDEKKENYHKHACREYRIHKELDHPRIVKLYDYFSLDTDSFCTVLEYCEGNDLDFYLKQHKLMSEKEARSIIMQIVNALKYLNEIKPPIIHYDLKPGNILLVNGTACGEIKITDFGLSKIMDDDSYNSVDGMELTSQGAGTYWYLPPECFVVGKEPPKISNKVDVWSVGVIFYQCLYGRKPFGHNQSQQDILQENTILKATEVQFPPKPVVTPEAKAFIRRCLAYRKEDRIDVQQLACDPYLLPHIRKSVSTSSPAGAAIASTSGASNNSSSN
Sequence of KHS1 (Q9Y4K4 whole entry): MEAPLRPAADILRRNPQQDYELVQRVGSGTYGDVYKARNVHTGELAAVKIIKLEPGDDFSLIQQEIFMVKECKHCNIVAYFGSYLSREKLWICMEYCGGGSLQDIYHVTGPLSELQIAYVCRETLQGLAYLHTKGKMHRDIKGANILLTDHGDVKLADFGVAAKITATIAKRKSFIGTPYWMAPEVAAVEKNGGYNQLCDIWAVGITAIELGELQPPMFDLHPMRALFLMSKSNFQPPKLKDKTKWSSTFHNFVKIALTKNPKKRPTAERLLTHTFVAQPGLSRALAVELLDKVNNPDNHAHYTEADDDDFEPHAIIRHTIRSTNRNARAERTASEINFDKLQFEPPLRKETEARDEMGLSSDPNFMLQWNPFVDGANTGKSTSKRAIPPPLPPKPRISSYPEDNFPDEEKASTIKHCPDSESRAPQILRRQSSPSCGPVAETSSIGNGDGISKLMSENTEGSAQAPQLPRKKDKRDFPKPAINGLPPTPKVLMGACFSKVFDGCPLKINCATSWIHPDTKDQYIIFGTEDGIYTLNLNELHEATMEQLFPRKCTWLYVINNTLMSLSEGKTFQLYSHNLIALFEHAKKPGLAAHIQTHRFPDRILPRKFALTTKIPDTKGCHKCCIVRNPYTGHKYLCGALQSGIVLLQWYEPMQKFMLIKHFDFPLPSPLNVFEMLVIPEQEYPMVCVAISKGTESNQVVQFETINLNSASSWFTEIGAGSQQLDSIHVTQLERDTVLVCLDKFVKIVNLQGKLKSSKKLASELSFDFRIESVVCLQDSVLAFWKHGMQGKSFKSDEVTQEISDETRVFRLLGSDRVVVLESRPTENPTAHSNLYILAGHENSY
Sequence of LATS1 (O95835 whole entry): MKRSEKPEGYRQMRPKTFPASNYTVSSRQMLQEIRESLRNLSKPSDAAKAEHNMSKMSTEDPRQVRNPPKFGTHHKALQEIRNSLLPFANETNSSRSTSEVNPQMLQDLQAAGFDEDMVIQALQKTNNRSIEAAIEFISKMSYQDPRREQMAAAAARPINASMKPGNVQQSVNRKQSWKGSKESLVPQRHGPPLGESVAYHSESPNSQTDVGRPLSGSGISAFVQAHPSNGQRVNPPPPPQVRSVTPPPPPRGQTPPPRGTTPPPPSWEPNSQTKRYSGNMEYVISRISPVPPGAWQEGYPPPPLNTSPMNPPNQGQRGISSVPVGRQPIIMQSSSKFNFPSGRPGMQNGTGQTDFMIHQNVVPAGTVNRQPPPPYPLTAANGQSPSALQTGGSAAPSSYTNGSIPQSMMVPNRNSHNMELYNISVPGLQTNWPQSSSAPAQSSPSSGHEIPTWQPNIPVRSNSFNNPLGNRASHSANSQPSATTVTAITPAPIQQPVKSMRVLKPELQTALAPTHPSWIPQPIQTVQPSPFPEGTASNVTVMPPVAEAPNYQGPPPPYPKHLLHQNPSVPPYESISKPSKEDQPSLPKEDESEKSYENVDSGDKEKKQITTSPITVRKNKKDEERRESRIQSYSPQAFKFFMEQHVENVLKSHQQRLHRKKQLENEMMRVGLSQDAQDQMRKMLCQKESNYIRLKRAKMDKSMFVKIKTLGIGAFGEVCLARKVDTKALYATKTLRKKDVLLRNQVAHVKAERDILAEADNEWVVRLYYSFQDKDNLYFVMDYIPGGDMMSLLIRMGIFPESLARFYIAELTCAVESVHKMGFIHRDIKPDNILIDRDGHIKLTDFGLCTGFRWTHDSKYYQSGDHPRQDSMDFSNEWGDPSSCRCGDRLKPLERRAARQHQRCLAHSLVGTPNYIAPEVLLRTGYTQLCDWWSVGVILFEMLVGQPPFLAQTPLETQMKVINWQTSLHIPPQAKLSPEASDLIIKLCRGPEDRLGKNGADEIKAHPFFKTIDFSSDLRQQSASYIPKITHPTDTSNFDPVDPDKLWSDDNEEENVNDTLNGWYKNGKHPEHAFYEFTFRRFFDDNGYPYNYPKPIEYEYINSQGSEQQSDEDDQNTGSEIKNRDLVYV

COc1cc(NS(=O)(=O)C2CC2)ccc1-c1cnc(N)c(-c2ccc3c(c2)CCNC3=O)c1 [Compound I-50, N-(4-(6-amino-5-(1-oxo-1,2,3,4-tetrahydroisoquinolin-6-yl)pyridin-3-yl)-3-methoxyphenyl) cyclopropanesulfonamide]
inhibition at 10 µM (CaMKK2; [2]): 75 to 90%
inhibition at 10 µM (CaMKK2; read-out: inhibition (10 μM)): 88.3%
inhibition at 10 µM (ZAK; [2]): 0%
inhibition at 10 µM (ZAK; read-out: inhibition (10 μM)): 6.6%
inhibition at 10 µM (CDK5; [2]): 0%
inhibition at 10 µM (CDK5; read-out: inhibition (10 μM)): 11.3%
inhibition at 10 µM (JAK3 domain2; [2]): 0%
inhibition at 10 µM (JAK3 domain2; read-out: inhibition (10 μM)): -20.2%
inhibition at 10 µM (BARK1; [2]): 0%
inhibition at 10 µM (BARK1; read-out: inhibition (10 μM)): -19.4%
inhibition at 10 µM (STLK5; [2]): 0%
inhibition at 10 µM (STLK5; read-out: inhibition (10 μM)): -22.3%
inhibition at 10 µM (RSK1 domain1; [2]): 0%
inhibition at 10 µM (RSK1 domain1; read-out: inhibition (10 μM)): -4.6%
inhibition at 10 µM (MARK4; [2]): 0%
inhibition at 10 µM (MARK4; read-out: inhibition (10 μM)): 6.8%
inhibition at 10 µM (LATS1; [2]): 0%
inhibition at 10 µM (LATS1; read-out: inhibition (10 μM)): 2.9%
inhibition at 10 µM (CaMK2g; [2]): 0%
inhibition at 10 µM (CaMK2g; read-out: inhibition (10 μM)): 15.6%
inhibition at 10 µM (PIK3CB; [2]): 0%
inhibition at 10 µM (PIK3CB; read-out: inhibition (10 μM)): 27.7%
inhibition at 10 µM (STLK3; [2]): 0%
inhibition at 10 µM (STLK3; read-out: inhibition (10 μM)): -12.3%
inhibition at 10 µM (IRAK1; [2]): 50 to 75%
inhibition at 10 µM (IRAK1; read-out: inhibition (10 μM)): 51.2%
% inhibition (NEK6, NEK7; 10 μM, range class): 0.0%
inhibition (10 μM) (NEK6, NEK7): −54.5%
inhibition at 10 µM (PKN1; [2]): 0%
inhibition at 10 µM (PKN1; read-out: inhibition (10 μM)): -39.9%
inhibition at 10 µM (KHS1; [2]): 75 to 90%
inhibition at 10 µM (KHS1; read-out: inhibition (10 μM)): 77.8%
inhibition at 10 µM (SRPK2; [2]): 0%
inhibition at 10 µM (SRPK2; read-out: inhibition (10 μM)): 1.8%
inhibition at 10 µM (TAO2; [2]): 0%
inhibition at 10 µM (TAO2; read-out: inhibition (10 μM)): 9%
inhibition at 10 µM (ACK; [2]): 0%
inhibition at 10 µM (ACK; read-out: inhibition (10 μM)): 11.3%
inhibition at 10 µM (GSK3A; [2]): 75 to 90%
inhibition at 10 µM (GSK3A; read-out: inhibition (10 μM)): 77.4%
% inhibition (FYN, SRC, YES; 10 μM, range class): 0.0%
inhibition (10 μM) (FYN, SRC, YES): −2.0%
inhibition at 10 µM (NEK8; [2]): 0%
inhibition at 10 µM (NEK8; read-out: inhibition (10 μM)): -8.1%
inhibition at 10 µM (PKCz; [2]): 0%
inhibition at 10 µM (PKCz; read-out: inhibition (10 μM)): -1.7%
inhibition at 10 µM (PIK3CG; [2]): 0%
inhibition at 10 µM (PIK3CG; read-out: inhibition (10 μM)): -74.9%
inhibition at 10 µM (MST1; [2]): > 90%
inhibition at 10 µM (MST1; read-out: inhibition (10 μM)): 97.5%
inhibition at 10 µM (TLK2; [2]): 0%
inhibition at 10 µM (TLK2; read-out: inhibition (10 μM)): -3%
% inhibition (Wnk1, Wnk2, Wnk3; 10 μM, range class): 0.0%
inhibition (10 μM) (Wnk1, Wnk2, Wnk3): 15.9%
inhibition at 10 µM (CHK1; [2]): 0%
inhibition at 10 µM (CHK1; read-out: inhibition (10 μM)): -9.6%
inhibition at 10 µM (PIP4K2C; [2]): > 90%
inhibition at 10 µM (PIP4K2C; read-out: inhibition (10 μM)): 90.6%
inhibition at 10 µM (PRPK; [2]): 0%
inhibition at 10 µM (PRPK; read-out: inhibition (10 μM)): -23.6%
inhibition at 10 µM (MAP2K5; [2]): 0%
inhibition at 10 µM (MAP2K5; read-out: inhibition (10 μM)): -12.1%
% inhibition ([1]; 10 μM, range class): 0.0%
inhibition (10 μM) [1]: 26.8%
inhibition at 10 µM (p70S6K; [2]): 0%
inhibition at 10 µM (p70S6K; read-out: inhibition (10 μM)): 2.4%

Nc1ncc(-c2cccc3ncsc23)cc1-c1ccc2c(c1)CCNC2=O [Compound I-13, 6-(2-amino-5-(benzo[d]thiazol-7-yl)pyridin-3-yl)-3,4-dihydroisoquinolin-1(2H)-one]
inhibition at 10 µM (CaMKK2; read-out: % inhibition (range)): 50 to 75%
inhibition at 10 µM (CaMKK2; read-out: inhibition (10 μM)): 74.9%
inhibition at 10 µM (ZAK; read-out: % inhibition (range)): 35 to 50%
inhibition at 10 µM (ZAK; read-out: inhibition (10 μM)): 44.9%
inhibition at 10 µM (CDK5; read-out: % inhibition (range)): 0%
inhibition at 10 µM (CDK5; read-out: inhibition (10 μM)): 20%
inhibition at 10 µM (JAK3 domain2; read-out: % inhibition (range)): 0%
inhibition at 10 µM (JAK3 domain2; read-out: inhibition (10 μM)): -12.8%
inhibition at 10 µM (BARK1; read-out: % inhibition (range)): 0%
inhibition at 10 µM (BARK1; read-out: inhibition (10 μM)): 21.8%
inhibition at 10 µM (STLK5; read-out: % inhibition (range)): 0%
inhibition at 10 µM (STLK5; read-out: inhibition (10 μM)): 9.9%
inhibition at 10 µM (RSK1 domain1; read-out: % inhibition (range)): 0%
inhibition at 10 µM (RSK1 domain1; read-out: inhibition (10 μM)): 3.3%
inhibition at 10 µM (MARK4; read-out: inhibition (10 μM)): 39.8%
inhibition at 10 µM (LATS1; read-out: % inhibition (range)): 0%
inhibition at 10 µM (LATS1; read-out: inhibition (10 μM)): 14.7%
inhibition at 10 µM (CaMK2g; read-out: % inhibition (range)): 0%
inhibition at 10 µM (CaMK2g; read-out: inhibition (10 μM)): -13.6%
inhibition at 10 µM (PIK3CB; read-out: % inhibition (range)): 0%
inhibition at 10 µM (PIK3CB; read-out: inhibition (10 μM)): 23.1%
inhibition at 10 µM (STLK3; read-out: % inhibition (range)): 0%
inhibition at 10 µM (STLK3; read-out: inhibition (10 μM)): 1.1%
inhibition at 10 µM (IRAK1; read-out: % inhibition (range)): 0%
inhibition at 10 µM (IRAK1; read-out: inhibition (10 μM)): 28.5%
% inhibition (range) (NEK6, NEK7; 10 μM): 0.0%
inhibition (10 μM) (NEK6, NEK7): −20.1%
inhibition at 10 µM (PKN1; read-out: % inhibition (range)): 0%
inhibition at 10 µM (PKN1; read-out: inhibition (10 μM)): 19%
inhibition at 10 µM (KHS1; read-out: % inhibition (range)): 35 to 50%
inhibition at 10 µM (KHS1; read-out: inhibition (10 μM)): 47.7%
inhibition at 10 µM (SRPK2; read-out: % inhibition (range)): 0%
inhibition at 10 µM (SRPK2; read-out: inhibition (10 μM)): -14%
inhibition at 10 µM (TAO2; read-out: % inhibition (range)): 0%
inhibition at 10 µM (TAO2; read-out: inhibition (10 μM)): -19.7%
inhibition at 10 µM (ACK; read-out: % inhibition (range)): 0%
inhibition at 10 µM (ACK; read-out: inhibition (10 μM)): 23.3%
inhibition at 10 µM (GSK3A; read-out: % inhibition (range)): > 90%
inhibition at 10 µM (GSK3A; read-out: inhibition (10 μM)): 91.6%
% inhibition (range) (FYN, SRC, YES; 10 μM): 0.0%
inhibition (10 μM) (FYN, SRC, YES): 0.3%
inhibition at 10 µM (NEK8; read-out: % inhibition (range)): 0%
inhibition at 10 µM (NEK8; read-out: inhibition (10 μM)): 10.6%
inhibition at 10 µM (PKCz; read-out: % inhibition (range)): 0%
inhibition at 10 µM (PKCz; read-out: inhibition (10 μM)): 15.5%
inhibition at 10 µM (PIK3CG; read-out: % inhibition (range)): 0%
inhibition at 10 µM (PIK3CG; read-out: inhibition (10 μM)): 12.4%
inhibition at 10 µM (MST1; read-out: % inhibition (range)): 75 to 90%
inhibition at 10 µM (MST1; read-out: inhibition (10 μM)): 89%
inhibition at 10 µM (TLK2; read-out: % inhibition (range)): 0%
inhibition at 10 µM (TLK2; read-out: inhibition (10 μM)): 12.6%
% inhibition (range) (Wnk1, Wnk2, Wnk3; 10 μM): 0.0%
inhibition (10 μM) (Wnk1, Wnk2, Wnk3): −69.3%
inhibition at 10 µM (CHK1; read-out: % inhibition (range)): 0%
inhibition at 10 µM (CHK1; read-out: inhibition (10 μM)): -8.9%
inhibition at 10 µM (PIP4K2C; read-out: % inhibition (range)): 35 to 50%
inhibition at 10 µM (PIP4K2C; read-out: inhibition (10 μM)): 42%
inhibition at 10 µM (PRPK; read-out: % inhibition (range)): 0%
inhibition at 10 µM (PRPK; read-out: inhibition (10 μM)): -6.4%
inhibition at 10 µM (MAP2K5; read-out: % inhibition (range)): 0%
inhibition at 10 µM (MAP2K5; read-out: inhibition (10 μM)): 13.4%
% inhibition (range) ([1]; 10 μM): 0.0%
inhibition (10 μM) [1]: −4.1%
inhibition at 10 µM (p70S6K; read-out: % inhibition (range)): 0%
inhibition at 10 µM (p70S6K; read-out: inhibition (10 μM)): -14.3%
